Structures can show the parent of a compound that is named as a salt. Where two headings read alike, the source gives them in different places.
What was measured:
[1] = molecular target: mouse Pgp (Abcb1a, MDR3) (Mus musculus, UniProt P21447); experiment: ATPase assay (Chifflet method), Pgp reconstituted in liposomes
[2] = molecular target: Pgp (Abcb1a, MDR3) (Mus musculus, UniProt P21447); experiment: in vitro; details: pH 7.4
[3] = tested on: Pgp; design: method as in Doan et al. (2002); details: drug accumulation assay, MDR1-MDCKII cells; ref Doan et al. (2002); cited from earlier work

Sequence of mouse Pgp (Abcb1a, MDR3) (P21447 whole entry): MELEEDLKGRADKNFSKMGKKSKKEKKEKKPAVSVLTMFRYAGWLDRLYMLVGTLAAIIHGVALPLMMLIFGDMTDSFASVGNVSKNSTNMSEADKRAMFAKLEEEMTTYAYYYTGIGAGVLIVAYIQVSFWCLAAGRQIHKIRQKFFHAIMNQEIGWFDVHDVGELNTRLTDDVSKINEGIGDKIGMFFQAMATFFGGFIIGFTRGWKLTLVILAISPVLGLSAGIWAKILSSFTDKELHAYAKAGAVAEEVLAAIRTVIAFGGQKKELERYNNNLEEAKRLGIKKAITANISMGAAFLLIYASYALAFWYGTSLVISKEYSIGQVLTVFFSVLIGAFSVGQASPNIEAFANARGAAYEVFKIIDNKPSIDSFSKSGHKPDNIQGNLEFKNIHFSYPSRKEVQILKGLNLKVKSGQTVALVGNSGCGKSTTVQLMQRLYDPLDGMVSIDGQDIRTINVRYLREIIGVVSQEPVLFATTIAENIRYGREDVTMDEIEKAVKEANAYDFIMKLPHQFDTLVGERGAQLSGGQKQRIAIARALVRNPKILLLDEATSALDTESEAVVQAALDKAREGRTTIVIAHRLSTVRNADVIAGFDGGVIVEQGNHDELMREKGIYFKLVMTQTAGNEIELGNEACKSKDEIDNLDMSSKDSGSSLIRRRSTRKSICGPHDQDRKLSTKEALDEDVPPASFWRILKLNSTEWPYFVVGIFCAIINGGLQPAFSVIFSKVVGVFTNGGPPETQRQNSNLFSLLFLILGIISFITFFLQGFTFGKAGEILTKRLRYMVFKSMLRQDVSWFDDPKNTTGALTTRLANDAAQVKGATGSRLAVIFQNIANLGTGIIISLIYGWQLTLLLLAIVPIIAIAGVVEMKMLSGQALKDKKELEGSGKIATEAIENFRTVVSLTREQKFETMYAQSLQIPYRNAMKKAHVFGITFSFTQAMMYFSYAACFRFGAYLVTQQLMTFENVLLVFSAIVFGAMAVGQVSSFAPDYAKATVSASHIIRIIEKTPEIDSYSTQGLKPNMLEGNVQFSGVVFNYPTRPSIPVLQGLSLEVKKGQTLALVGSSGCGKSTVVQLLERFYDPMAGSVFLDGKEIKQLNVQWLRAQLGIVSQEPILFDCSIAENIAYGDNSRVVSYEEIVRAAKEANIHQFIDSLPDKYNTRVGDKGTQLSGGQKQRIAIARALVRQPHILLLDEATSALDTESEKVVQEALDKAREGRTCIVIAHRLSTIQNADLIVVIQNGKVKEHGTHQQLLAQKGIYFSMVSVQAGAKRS
Sequence of Pgp (Abcb1a, MDR3) (P21447 whole entry): as above

SMILES: [Na+].[Na+].[Na+].[O]=[V]([O-])([O-])[O-] [sodium orthovanadate, Sodium orthovanadate]
- Pgp ATPase activity in presence of inhibitor ([1]; decline from basal 482 ± 50): approximately 100 nmolmin^−1mg^−1

SMILES: CNCCCN1c2ccccc2CCc2ccccc21 [Desipramine, desipramine hydrochloride]
- vmax of Pgp ATP hydrolysis ([1]; 50 nM Pgp in liposomes, curve fit (Eq. 2 monophasic, Eq. 3 biphasic)): 904 ± 65 nmolmin^−1mg^−1
- ATP hydrolysis activation profile ([1]; shape of ATPase kinetics curve): monophasic
- koff [2]: 129 s⁻¹
- Pgp efflux ratio (literature) [3]: 2

SMILES: C=C[C@H]1C[N@@]2CC[C@H]1C[C@@H]2[C@@H](O)c1ccnc2ccc(OC)cc12 [Quinidine]
- Ki [1]: 131 ± 34 µM
- peak ATP hydrolysis rate [1]: approximately 900 nmolmin^−1mg^−1

SMILES: CCC(=O)C(CC(C)N(C)C)(c1ccccc1)c1ccccc1 (stereo not drawn) [Methadone, methadone hydrochloride]
- peak ATP hydrolysis rate [1]: approximately 800 nmolmin^−1mg^−1
- vmax of Pgp ATP hydrolysis [1]: 849 ± 45 nmolmin^−1mg^−1

Source: PMC11027885, “Utilizing surface plasmon resonance as a novel method for monitoring in-vitro P-glycoprotein efflux” (Frontiers in biophysics, 2024)
